In patent publication US6342531B1, “Pharmaceutical composition containing a cysteine protease inhibitor for prophylaxis and therapy of brain tissue impairment” (Senju Pharmaceutical Co., Ltd., priority 1998, dated 2002):
Non-standard residues stand in square brackets, D forms with d. Residues, ends and D or L forms follow the SMILES beside them. *: point of attachment. Nle = CCCC[C@H](N)C(=O)O; Cbz = O=C(OCc1ccccc1)*

Key:
[1] = test system: nerve cells in the hippocampal CA1 region; assay: Effect on ischemic disorder of the brain: bilateral common carotid artery occlusion, nerve cell counts in hippocampal CA1 region; format: in vivo; conditions: gerbil, 10 min ischemia, 100 mg/kg intraperitoneally 15 min before ischemia, immediately after reperfusion, then once daily, counted 5 days after reperfusion; for ischemia-induced decrease in the number of normal nerve cells in the hippocampal CA1 region: FIG. 1; for ischemia-induced increase in the number of apoptotic nerve cells in the hippocampal CA1 region: FIG. 2
Experimental: The bilateral common carotid arteries of gerbils (male, body weights 60-80 g) were exposed under ether anesthesia. Then, in a conscious state, the carotid arteries were occluded with aneurysm clips to arrest the blood flow for 10 minutes. Ischemia was confirmed by checking the arrest of retinal blood flow with a blood flow meter (Advance laser flow meter (ALF21N), Advance Co. Ltd.) and observation of ischemic symptoms such as seizure, circling, and ptosis. After removal of the clips, reperfusion was confirmed with the blood flow meter. Five days after reperfusion, the animal was anesthetized with ether and was perfused with saline through the left ventricle for removal of blood and further with 4% formaldehyde for fixation of the brain tissue. The tissue was embedded in paraffin and thin sections were prepared and stained with hematoxylin-eosin in the routine manner. The nerve cells in the hippocampal CA1 region were observed under a light microscope and the normal nerve cells remaining in a 1.0 mm span of the hippocampal CA1 region were counted. Separately, using Apoptosis in situ Detection Kit Wako (Wako Pure Chemical Ind., Ltd.), the apoptosis in the paraffin-embedded brain tissue specimen was detected and using the light microscope, the apoptotic nerve cells per 1.0 mm span of the hippocampal CA1 region were counted.
In the normal group, the common carotid arteries were exposed but no ischemia was introduced. As the test drug, a parenteral suspension prepared as in Example 3 was administered intraperitoneally in a dose of 100 mg Compound 1 per kg body weight 15 minutes before ischemia, immediately after reperfusion, and thereafter once daily (Compound 1 administration group). In the control group and normal group, the vehicle used in Example 3 was similarly administered. As a positive control, Cbz-Val-Phe-H [MDL; S. C. Hong et al., Stroke, 25 (3), 663-669 (1994)], 100 mg/kg body weight, was similarly administered (MDL administration group).

[2] = test system: cytopathy due to cerebral ischemia; conditions: rats, administered intravenously; cited from earlier work
[3] = Toxicity study, single oral dose, 14-day observation; format: in vivo, Wister rats; conditions: rat, oral 1000 mg/kg
Experimental: Five-week-old Wister rats (male, body weights 80-105 g) were orally given a 3.3 w/v % suspension of Compound 1 in 0.5 w/v % carboxymethylcellulose in a dose of 1000 mg as Compound 1 per kg body weight. […] Body weights were recorded before dosing and once daily for 14 days after dosing. Autopsy was performed after sacrifice by exsanguination under ether anesthesia after 14 days and the organs were grossly examined. The control group received 0.5 w/v % carboxymethylcellulose.

neurons [4] = conditions: administered intraperitoneally; cited from earlier work
neurons [5] = conditions: directly administered into the animal cerebral ventricle; cited from earlier work

Structure (SMILES): CC(C)[C@H](NC(=O)OCc1ccccc1)C(=O)N[C@H](C=O)Cc1ccccc1 [MDL, Cbz-Val-Phe-H] (Cbz-Val-Phe-aldehyde)
- ischemia-induced decrease in the number of normal nerve cells in the hippocampal CA1 region [1]: little inhibitory effect
- ischemia-induced increase in the number of apoptotic nerve cells in the hippocampal CA1 region [1]: little inhibitory effect
- cytopathy due to cerebral ischemia [2]: inhibited cytopathy

Structure (SMILES): CC(C)C[C@@H](C=O)NC(=O)[C@@H](NS(=O)(=O)c1ccc(F)cc1)C(C)C [Compound 1, N-(4-fluorophenylsulfonyl)-L-valyl-L-leucinal]
- ischemia-induced decrease in the number of normal nerve cells in the hippocampal CA1 region [1]: significantly inhibited
- ischemia-induced increase in the number of apoptotic nerve cells in the hippocampal CA1 region [1]: significantly inhibited
- body weight gain versus control group ([3]; 14 days): no difference
- autopsy findings versus control group ([3]; autopsy after 14 days): no difference
- general condition and behavior ([3]; observed 14 days): no change

Structure (SMILES): CCCC[C@@H](C=O)NC(=O)[C@H](CC(C)C)NC(=O)[C@H](CC(C)C)NC(C)=O [calpain inhibitor I] (Ac-Leu-Leu-[Nle]-aldehyde)
- protection of neurons from excitotoxic factors (neurons [4]): protect neurons from excitotoxic factors

Structure (SMILES): CC(=O)N[C@@H](CC(C)C)C(=O)N[C@@H](CC(C)C)C(=O)N[C@H](C=O)CCCNC(=N)N [leupeptin]
- protection of neurons against damage by cerebral ischemia (neurons [5]): protects neurons against damage
